Where a SMILES comes first, the peptide text is derived from it. [ ]: non-standard residue; d: D form. Phe(4-F) = N[C@@H](Cc1ccc(F)cc1)C(=O)O; NMeM = CN[C@@H](CCSC)C(=O)O

For one experiment, the system named is mouse. The experiment in a line: mouse hot plate test (analgesic activity). The note with it: subcutaneous, hot plate 52° C., 15 minutes after administration, latency until jump. The class given is in vivo. As to the method:
In this test, a mouse is placed inside on upright acrylic cylinder comprising, as its base, a hot plate surface which is maintained at 52° C. The mouse is given, orally or by subcutaneous injection, a predetermined amount of test compound dissolved or suspended in a suitable carrier, and, 15 minutes after administration of the test compound, the mouse is placed on the hot plate surface. The latency in seconds until the mouse jumps from the hot plate surface is measured. […] This must occur in a dose range which produces no motor incoordination or incapacitation. The following Table records the ED50 results obtained from this test.
Turning to `CSCC[C@@H](C(N)=O)N(C)C(=O)[C@H](Cc1ccc(F)cc1)NC(=O)CNC(=O)[C@@H](C)NC(=O)[C@@H](N)Cc1ccc(O)cc1` [Example 1, L-Tyrosyl-D-alanyl glycyl-L-p-fluorophenylalanyl-L-(N^α -methyl)methionin amide], the “Analgesic Activity, Hot Plate Test, ED50” value was found to be 0.023 mg/kg.

As for `COc1ccc([C@H](NC(=O)[C@H](Cc2ccc(F)cc2)NC(=O)CNC(=O)[C@@H](C)NC(=O)[C@@H](N)Cc2ccc(O)cc2)C(N)=O)cc1` [Example 2, L-Tyrosyl-D-alanyl-glycyl-L-p-fluorophenylalanyl-L-p-methoxyphenylglycinamide], the “Analgesic Activity, Hot Plate Test, ED50” value was determined as 1.04 mg/kg. Turning to `C[C@@H](NC(=O)[C@@H](N)Cc1ccc(O)cc1)C(=O)NCC(=O)N[C@@H](Cc1ccc(F)cc1)C(=O)N[C@@H](C(N)=O)c1ccccc1` [Example 3 D-Pgl, L-Tyrosyl-D-alanyl-glycyl-L-p-fluorophenylalanyl-D-phenylglycinamide], the “Analgesic Activity, Hot Plate Test, ED50” value is 0.103 mg/kg. On the same count and under the same terms, as for `C[C@@H](NC(=O)[C@@H](N)Cc1ccc(O)cc1)C(=O)NCC(=O)N[C@@H](Cc1ccc(F)cc1)C(=O)N[C@H](C(N)=O)c1ccccc1` [Example 3 L-Pgl, L-Tyrosyl-D-alanyl-glycyl-L-p-fluorophenylalanyl-L-phenylglycinamide], the figure is 0.063 mg/kg; as for `CSCC[C@@H](C(N)=O)N(C)C(=O)[C@H](Cc1ccc(F)cc1)NC(=O)CNC(=O)[C@H](NC(=O)[C@@H](N)Cc1ccc(O)cc1)[C@H](C)O` [Example 4, L-Tyrosyl-D-threonylglycyl-L-p-fluorophenylalanyl-L-(N^α -methyl)methioninamide] (H-Y[dT]G[Phe(4-F)][NMeM]-NH2), 0.088 mg/kg.

Tested on in another experiment: not given
Experiment: not given
The note with it: administered parenterally; cited from earlier work.
In the case of “H-Tyr-Gly-Gly-Phe-Leu-OH [leucine enkephalin]”, the analgesic activity entry was “practically devoid of any useful analgesic activity”. With “H-Tyr-Gly-Gly-Phe-Met-OH [methionine enkephalin]”, the analgesic activity entry was “practically devoid of any useful analgesic activity”.

Source of the values: US4283329A, “Pharmacologically active peptides” (Eli Lilly and Company, priority 1979, dated 1981).
